From patent US20120041071A1, “[…] TREATING PAIN DUE TO OSTEOARTHRITIS” (Gruenenthal GmbH, priority 2007, published 2012)

How the values were obtained:
[1] = test system: moderate to severe pain due to arthrosis of the knee; test: Randomised, placebo-controlled double-blind study, tapentadol PR vs oxycodone HCl CR, 28 days (Example 1); assay type: in vivo, human; settings: compared with oxycodone
Procedure: The efficacy and tolerability of tapentadol with prolonged release (prolonged release (PR)) and oxycodone HCl with controlled release (controlled release (CR)) were compared with a placebo in patients with moderate to severe pain due to arthrosis of the knee.
Patients (N=670) were randomly selected and treated over 28 days twice with tapentadol PR 100 mg, with tapentadol PR 200 mg, with oxycodone HCl CR 20 mg or with a placebo. The dose was titrated at the start of the treatment. The primary efficacy endpoint was the average perception of pain during the preceding 24 hours at the time of the last medical examination (final visit) based on a visual analog 100-mm sale (VAS, 0 mm=no pain, 100 mm=worst pain imaginable)).
The study consisted of a 14-day, double-blind titration phase (3 days->11 days) followed by a 14-day double-blind maintenance phase (at the highest dose of the titration scheme in each case; see FIG. 1):
tapentadol PR 100 mg: 25 mg (bid)->50 mg (bid)->100 mg (bid);
tapentadol PR 200 mg: 100 mg (bid)->150 mg (bid)->200 mg (bid);
oxycodone HCl CR 20 mg: 10 mg (bid)->10 mg (bid)->20 mg (bid).

[2] = test system: pain; test: Clinical studies of pain-alleviating action compared with morphine; assay type: in vivo, human
[3] = target: recombinantly produced μ-opioid receptor (Homo sapiens, UniProt P35372); test: Affinity to recombinantly produced μ-opioid receptor; assay type: binding; settings: in humans; relative to morphine
recombinantly produced μ-opioid receptor, sequence (P35372 whole entry): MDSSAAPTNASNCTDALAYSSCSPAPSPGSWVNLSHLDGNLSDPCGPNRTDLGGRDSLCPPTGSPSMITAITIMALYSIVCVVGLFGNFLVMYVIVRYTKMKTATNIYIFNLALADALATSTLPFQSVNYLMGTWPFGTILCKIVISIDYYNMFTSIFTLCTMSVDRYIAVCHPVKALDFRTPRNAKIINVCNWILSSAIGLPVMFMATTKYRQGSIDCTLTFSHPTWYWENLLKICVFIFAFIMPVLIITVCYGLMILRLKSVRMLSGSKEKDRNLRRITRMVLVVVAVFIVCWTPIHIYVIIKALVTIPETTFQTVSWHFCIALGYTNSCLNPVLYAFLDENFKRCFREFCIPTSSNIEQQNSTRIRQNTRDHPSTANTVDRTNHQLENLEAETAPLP

## CC[C@@H](c1cccc(O)c1)[C@@H](C)CN(C)C [tapentadol, (−)-(1R,2R)-3-(3-dimethylamino-1-ethyl-2-methyl-propyl)-phenol]
[1]
  tolerability with respect to gastrointestinal and central nervous system side effects: better tolerated than oxycodone
[2]
  pain-alleviating action relative to morphine: two to three times less than that of morphine
[3]
  affinity to the recombinantly produced μ-opioid receptor, times less than that of morphine: 18 times
